Laboratory results published in patent US20200128823A1, “ALGICIDAL, ALGISTATIC, HERBICIDAL AND HERBISTATIC TREATMENT OF WATER” (priority 2017, published 2020).
≈ marks a conversion by molar mass, not a printed value. Where two headings read alike, the source gives them in different places.

How the values were obtained:
[1] = cited from earlier work
[2] = Previous experiments: dissolution in water of a composition of gallic acid alone; format: physicochemical; conditions: composition composed only of gallic acid, no excipient
Source text: In order to avoid this problem, excipients of different nature but without algicidal, algistatic, herbicidal or herbistatic effect are preferably added. The excipients are desirable to allow a rapid descent on the bottom of the various conditioning, the dissolution of the active substance or optionally of the active substances and secondly to create a stratum of a density greater than that of the water by a thickening action.

In the case of `O=C(O)/C=C/c1ccc(O)c(O)c1` [Caffeic Acid, (E) 3-(3,4-dihydroxyphenyl)prop-2-enoic acid], the “Solubility in water (in words)” value ([1]; water) is listed as “poorly soluble in water”.
For `O=c1oc2c(O)c(O)cc3c(=O)oc4c(O)c(O)cc1c4c23` [Ellagic Acid, 2,3,7,8-Tetrahydroxy(1)benzopyrano (5,4,3-cde)-(1)benzopyran-5,10-dione], the Solubility ([1]; at 21° C.) is listed as < 1 mg/mL.
In the case of `O.O=C(O)c1cc(O)c(O)c(O)c1` [Gallic Acid Monohydrate], the Solubility ([1]; water at 20° C.) is given as 15 mg/mL.
In the case of `O=C(O)c1cc(O)c(O)c(O)c1` [Non-Hydrated Gallic Acid, 3,4,5-trihydroxybenzoic acid], the Dissolution in water [2] is reported as “does not dissolve or is very difficult to dissolve in water”.
In the case of `Oc1cccc(O)c1O` [Pyrogallic Acid, pyrogallol], the Solubility in water ([1]; at 20° C.) is listed as 588.00 g/L (≈ 4660 mM).
In the case of `O=c1c(O)c(-c2ccc(O)c(O)c2)oc2cc(O)cc(O)c12` [Quercetin, 2-(3,4-dihydroxyphenyl)-3,5,7-trihydroxy-4H-chromen-4-one], the Solubility ([1]; water) is given as 0.06 mg/mL (≈ 0.199 mM).
In the case of `Oc1ccc(/C=C/c2cc(O)cc(O)c2)cc1` [Resveratrol, 5-[(E)-2-(4-hydroxyphenyl)-ethenyl] benzene-1,3-diol], the Solubility ([1]; DMSO) is listed as ~16 mg/mL (≈ 70.1 mM), the Solubility ([1]; ethanol) is listed as 50 mg/mL (≈ 219 mM) and the Solubility ([1]; water) is listed as ~0.03 mg/mL (≈ 0.131 mM).
